According to the NIST ThermoML archive (doi:10.1021/acs.jced.7b00427):

Settings: Gas, Buoyancy - hydrostatic balance with magnetic suspension - one sinker

C=C(F)C(F)(F)F [2,3,3,3-tetrafluoro-1-propene]
Settings | mass density [kg/m3]
252.64 K, 70 kPa | 3.88
252.64 K, 110 kPa | 6.265
252.64 K, 124 kPa | 7.097
262.07 K, 81 kPa | 4.341
262.08 K, 113 kPa | 6.19
262.08 K, 136 kPa | 7.456
262.08 K, 157 kPa | 8.696
262.08 K, 169 kPa | 9.424
270.18 K, 105 kPa | 5.505
270.18 K, 132 kPa | 6.952
270.18 K, 172 kPa | 9.215
270.18 K, 232 kPa | 12.71
270.19 K, 256 kPa | 14.125
279.64 K, 75 kPa | 3.732
279.65 K, 118 kPa | 5.957
279.65 K, 168 kPa | 8.6
279.65 K, 219 kPa | 11.398
279.66 K, 261 kPa | 13.822
279.66 K, 302 kPa | 16.231
279.67 K, 352 kPa | 19.153
289.17 K, 279 kPa | 14.228
289.17 K, 433 kPa | 23.141
289.18 K, 186 kPa | 9.245
289.18 K, 223 kPa | 11.205
289.18 K, 344 kPa | 17.869
289.18 K, 502 kPa | 27.513
289.19 K, 84 kPa | 4.052
289.19 K, 143 kPa | 7.017
298.63 K, 249 kPa | 12.098
298.63 K, 312 kPa | 15.415
298.63 K, 363 kPa | 18.154
298.63 K, 419 kPa | 21.272
298.63 K, 599 kPa | 32.147
298.63 K, 647 kPa | 35.336
298.64 K, 134 kPa | 6.319
298.64 K, 204 kPa | 9.779
308.12 K, 125 kPa | 5.711
308.12 K, 242 kPa | 11.284
308.13 K, 188 kPa | 8.693
308.13 K, 282 kPa | 13.311
308.13 K, 367 kPa | 17.655
308.13 K, 460 kPa | 22.624
308.14 K, 517 kPa | 25.797
308.14 K, 551 kPa | 27.714
308.14 K, 608 kPa | 31.08
308.14 K, 741 kPa | 39.419
317.63 K, 418 kPa | 19.56
317.63 K, 514 kPa | 24.547
317.63 K, 613 kPa | 30.022
317.63 K, 892 kPa | 46.934
317.64 K, 202 kPa | 9.037
317.64 K, 351 kPa | 16.204
317.66 K, 116 kPa | 5.083
317.66 K, 166 kPa | 7.365
327.25 K, 522 kPa | 23.936
327.25 K, 597 kPa | 27.809
327.25 K, 825 kPa | 40.447
327.25 K, 1152 kPa | 61.545
327.26 K, 299 kPa | 13.167
327.26 K, 372 kPa | 16.57
327.26 K, 463 kPa | 20.996
327.27 K, 97 kPa | 4.113
327.27 K, 153 kPa | 6.549
327.27 K, 235 kPa | 10.227
336.67 K, 110 kPa | 4.549
336.67 K, 321 kPa | 13.728
336.67 K, 424 kPa | 18.45
336.67 K, 501 kPa | 22.051
336.67 K, 618 kPa | 27.852
336.67 K, 667 kPa | 30.331
336.67 K, 693 kPa | 31.586
336.67 K, 873 kPa | 41.236
336.67 K, 1254 kPa | 64.685
336.67 K, 1683 kPa | 100.038
336.68 K, 237 kPa | 10.013
345.74 K, 1557 kPa | 81.658
345.74 K, 1910 kPa | 112.152
345.75 K, 517 kPa | 21.914
345.75 K, 739 kPa | 32.609
345.75 K, 886 kPa | 40.193
345.75 K, 1229 kPa | 59.662
345.76 K, 145 kPa | 5.863
345.76 K, 305 kPa | 12.598
